# Experimental data: patent US20140024700A1, “BLOOD-BORNE MIRNAS AS SURROGATE MARKERS OF DRUG EFFICACY FOR CARDIAC CONDITIONS” (miRagen Therapeutics, Inc., priority 2010, published 2014)
# Like-named read-outs stand apart in the source and are kept apart here.
# Test system: plasma miRNAs
# Details: 8 weeks
# Experimental: To evaluate plasma biomarkers over time, surgically implanted catheters were used for non-invasive bi-weekly blood draws in the Dahl salt-sensitive rat model of congestive heart failure described in Example 1. Changes in plasma miRNA biomarkers with disease progression and therapeutic treatment with an LNA-modified antisense oligonucleotide targeting miR-208a (M−10101; SEQ ID NO: 12) were evaluated. The flowing experimental groups were tested:
# The M-10591 oligonucleotide (SEQ ID NO:13) targets miR-67 from C. elegans, which is not expressed in mammalian tissue, and therefore was used as a control. Dahl salt-sensitive rats were implanted with catheters at week zero and baseline blood was taken. Following catheter implant surgery, high-salt diet was initiated. One week following the initiation of the 4.0% NaCl diet, rats were dosed subcutaneously (s.c.) with saline or antimiRs at 25 mg/kg once every 2 weeks. On alternating weeks (non-injection weeks) 1.5 mls of blood was drawn from the catheter for plasma isolation. Animals were sacrificed 8 weeks after the initial injection.
# Plasma and tissue molecular endpoints were evaluated using Taqman RT-PCR assays. Specifically, RNA from plasma samples was isolated using Trizol LS (Invitrogen). Synthetic C. elegans miRNA sequences for lin-4 and miR-2 were added at a constant concentration to each sample to monitor purification efficiency and for normalization. Tissue RNA was isolated using standard Trizol RNA isolation. Standard ABI Taqman miRNA assay protocols were used to determine relative miRNA levels.
# Changes in plasma miRNA levels between rats suffering from hypertension-induced heart failure (H S/saline group) and rats treated with an antimiR-208a oligonucleotide (HS/M-10101) were assessed at 8 weeks by both miRNA Taqman array card analysis (Tables 2 and 3) and real-time PCR analysis (Table 4).
# [1] = Down Regulated, HS-Saline vs. HS-10101, Real Time PCR
# [2] = Up-regulated, HS-Saline vs. HS-10101, Real Time PCR
# [3] = decreased in response to treatment, HS-saline/HS-10101, array card
# [4] = increased in response to treatment, HS-10101/HS-Saline, array card
substance,measurement,setting,value
"M-10101: antimiR targeting bases 2 to 17 of mature miR-208a, LNA and DNA linked by phosphorothioate bonds; 5′-CTTTTTGCTCGTCTTA-3′ (SEQ ID NO: 12) (all phosphorothioate, sugars by position and methylation of C not given here; LNA/DNA mixmer; listed as Homo sapiens)",Fold change of plasma hsa-miR-16,[1],3.45 fold
same,Fold change of plasma hsa-miR-20a,[1],1.92 fold
same,Fold change of plasma hsa-miR-20b,[1],2.10 fold
same,Fold change of plasma hsa-miR-21,[1],1.48 fold
same,Fold change of plasma hsa-miR-22,[1],1.50 fold
same,Fold change of plasma hsa-miR-27a,[1],2.10 fold
same,Fold change of plasma hsa-miR-92a,[1],2.32 fold
same,Fold change of plasma hsa-miR-93,[1],2.87 fold
same,Fold change of plasma hsa-miR-106b,[1],2.57 fold
same,Fold change of plasma hsa-miR-122,[1],1.36 fold
same,Fold change of plasma hsa-miR-126,[1],1.30 fold
same,Fold change of plasma hsa-miR-133a,[1],1.29 fold
same,Fold change of plasma hsa-miR-140,[1],2.13 fold
same,Fold change of plasma hsa-miR-150,[1],2.07 fold
same,Fold change of plasma hsa-miR-185,[1],2.35 fold
same,Fold change of plasma hsa-miR-210,[1],2.31 fold
same,Fold change of plasma hsa-miR-223,[1],3.02 fold
same,Fold change of plasma hsa-miR-320,[1],3.16 fold
same,Fold change of plasma hsa-miR-378,[1],1.74 fold
same,Fold change of plasma hsa-miR-378*,[1],1.38 fold
same,Fold change of plasma hsa-miR-423-5p,[1],2.52 fold
same,Fold change of plasma hsa-miR-499,[1],1.26 fold
same,Fold change of plasma hsa-miR-19b,[2],2.68 fold
same,Fold change of plasma hsa-miR-125a-5p,[2],2.05 fold
same,Fold change of plasma hsa-miR-143,[2],1.53 fold
same,Fold change of plasma hsa-miR-145,[2],2.17 fold
same,Fold change of plasma hsa-miR-195,[2],2.10 fold
same,Fold change of plasma hsa-miR-199b-5p,[2],2.39 fold
same,Fold change of plasma hsa-miR-204,[2],2.18 fold
same,Fold change of plasma hsa-miR-214,[2],1.49 fold
same,Fold change of plasma hsa-let-7b,[3],1.09 fold
same,Fold change of plasma hsa-miR-16,[3],2.04 fold
same,Fold change of plasma hsa-miR-17,[3],1.41 fold
same,Fold change of plasma hsa-miR-18a,[3],2.01 fold
same,Fold change of plasma hsa-miR-20a,[3],2.43 fold
same,Fold change of plasma hsa-miR-20b,[3],4.87 fold
same,Fold change of plasma hsa-miR-24,[3],1.17 fold
same,Fold change of plasma hsa-miR-25,[3],1.33 fold
same,Fold change of plasma hsa-miR-26b,[3],1.98 fold
same,Fold change of plasma hsa-miR-27a,[3],2.74 fold
same,Fold change of plasma hsa-miR-27b,[3],1.18 fold
same,Fold change of plasma hsa-miR-29c,[3],1.34 fold
same,Fold change of plasma hsa-miR-30a,[3],1.28 fold
same,Fold change of plasma hsa-miR-30b,[3],1.21 fold
same,Fold change of plasma hsa-miR-92a,[3],1.20 fold
same,Fold change of plasma hsa-miR-93,[3],2.93 fold
same,Fold change of plasma hsa-miR-101a,[3],1.11 fold
same,Fold change of plasma hsa-miR-103a,[3],1.16 fold
same,Fold change of plasma hsa-miR-106b,[3],2.15 fold
same,Fold change of plasma hsa-miR-122,[3],1.59 fold
same,Fold change of plasma hsa-miR-125b-5p,[3],1.51 fold
same,Fold change of plasma hsa-miR-133a,[3],2.21 fold
same,Fold change of plasma hsa-miR-140-5p,[3],3.23 fold
same,Fold change of plasma hsa-miR-148a,[3],2.49 fold
same,Fold change of plasma hsa-miR-181c,[3],1.37 fold
same,Fold change of plasma hsa-miR-182,[3],1.39 fold
same,Fold change of plasma hsa-miR-184,[3],1.42 fold
same,Fold change of plasma hsa-miR-185,[3],7.02 fold
same,Fold change of plasma hsa-miR-188-5p,[3],1.76 fold
same,Fold change of plasma hsa-miR-192,[3],1.92 fold
same,Fold change of plasma hsa-miR-195,[3],1.73 fold
same,Fold change of plasma hsa-miR-197,[3],1.52 fold
same,Fold change of plasma hsa-miR-199a-5p,[3],4.95 fold
same,Fold change of plasma hsa-miR-203,[3],1.13 fold
same,Fold change of plasma hsa-miR-218,[3],1.32 fold
same,Fold change of plasma hsa-miR-222,[3],1.11 fold
same,Fold change of plasma hsa-miR-223,[3],1.88 fold
same,Fold change of plasma hsa-miR-301a,[3],1.79 fold
same,Fold change of plasma hsa-miR-320a,[3],1.89 fold
same,Fold change of plasma hsa-miR-324-5p,[3],1.39 fold
same,Fold change of plasma hsa-miR-335-5p,[3],1.07 fold
same,Fold change of plasma hsa-miR-340-5p,[3],1.19 fold
same,Fold change of plasma hsa-miR-365,[3],2.61 fold
same,Fold change of plasma hsa-miR-423-5p,[3],4.18 fold
same,Fold change of plasma hsa-miR-451,[3],3.28 fold
same,Fold change of plasma hsa-miR-484,[3],1.46 fold
same,Fold change of plasma hsa-miR-486-5p,[3],1.49 fold
same,Fold change of plasma hsa-miR-542-3p,[3],11.10 fold
same,Fold change of plasma hsa-miR-744,[3],1.83 fold
same,Fold change of plasma hsa-let-7c,[4],1.54 fold
same,Fold change of plasma hsa-let-7e,[4],1.66 fold
same,Fold change of plasma hsa-let-7g,[4],3.02 fold
same,Fold change of plasma hsa-let-7d,[4],1.98 fold
same,Fold change of plasma hsa-miR-19a,[4],1.90 fold
same,Fold change of plasma hsa-miR-19b,[4],3.27 fold
same,Fold change of plasma hsa-miR-26a,[4],1.39 fold
same,Fold change of plasma hsa-miR-28,[4],6.61 fold
same,Fold change of plasma hsa-miR-29a,[4],1.31 fold
same,Fold change of plasma hsa-miR-29b,[4],2.67 fold
same,Fold change of plasma hsa-miR-30c,[4],1.37 fold
same,Fold change of plasma hsa-miR-30e,[4],1.06 fold
same,Fold change of plasma hsa-miR-31,[4],1.45 fold
same,Fold change of plasma hsa-miR-99b,[4],2.63 fold
same,Fold change of plasma hsa-miR-107,[4],5.54 fold
same,Fold change of plasma hsa-miR-125a-3p,[4],12.16 fold
same,Fold change of plasma hsa-miR-125a-5p,[4],5.34 fold
same,Fold change of plasma hsa-miR-126,[4],1.27 fold
same,Fold change of plasma hsa-miR-126-5p (miR-126*),[4],2.01 fold
same,Fold change of plasma hsa-miR-128a,[4],1.75 fold
same,Fold change of plasma hsa-miR-130a,[4],2.30 fold
same,Fold change of plasma hsa-miR-130b,[4],1.26 fold
same,Fold change of plasma hsa-miR-138,[4],1.08 fold
same,Fold change of plasma hsa-miR-139-5p,[4],1.14 fold
same,Fold change of plasma hsa-miR-142-3p,[4],25.04 fold
same,Fold change of plasma hsa-miR-142-5p,[4],1.98 fold
same,Fold change of plasma hsa-miR-143,[4],8.47 fold
same,Fold change of plasma hsa-miR-145,[4],2.07 fold
same,Fold change of plasma hsa-miR-146a,[4],1.17 fold
same,Fold change of plasma hsa-miR-152,[4],2.05 fold
same,Fold change of plasma hsa-miR-155,[4],1.73 fold
same,Fold change of plasma hsa-miR-181a,[4],3.00 fold
same,Fold change of plasma hsa-miR-186,[4],1.83 fold
same,Fold change of plasma hsa-miR-187,[4],1.60 fold
same,Fold change of plasma hsa-miR-191,[4],1.23 fold
same,Fold change of plasma hsa-miR-196b,[4],11.73 fold
same,Fold change of plasma hsa-miR-199a-3p,[4],3.14 fold
same,Fold change of plasma hsa-miR-204,[4],4.61 fold
same,Fold change of plasma hsa-miR-214,[4],1.57 fold
same,Fold change of plasma hsa-miR-296-5p,[4],18.29 fold
same,Fold change of plasma hsa-miR-302a,[4],2.10 fold
same,Fold change of plasma hsa-miR-324-3p,[4],1.07 fold
same,Fold change of plasma hsa-miR-331-3p,[4],1.53 fold
same,Fold change of plasma hsa-miR-339-5p,[4],2.18 fold
same,Fold change of plasma hsa-miR-340-3p,[4],1.86 fold
same,Fold change of plasma hsa-miR-342-3p,[4],1.15 fold
same,Fold change of plasma hsa-miR-375,[4],1.32 fold
same,Fold change of plasma hsa-miR-449a,[4],2.99 fold
same,Fold change of plasma hsa-miR-487b,[4],2.67 fold
same,Fold change of plasma hsa-miR-532-3p,[4],1.72 fold
same,Fold change of plasma hsa-miR-574-3p,[4],2.20 fold
same,Fold change of plasma hsa-miR-30d,[4],1.29 fold
